Test system: phosphorylation of Akt (S473)
Experiment: Treatment of Capan-1 Cosmc KO cells with HER2 inhibitor, Akt phosphorylation by immunoblotting
Assay type: cell-based, human
Details: 24 h, FIG. 9B

SMILES: COCC(=O)NC/C=C/c1ccc2ncnc(Nc3ccc(Oc4ccc(C)nc4)c(C)c3)c2c1 [CP724714]
- phosphorylation of Akt: decreases the phosphorylation of Akt in a dose dependent manner

Reference: patent publication US10023652B2, “Method of targeting glycoproteins to treat cancer” (Board of Regents of the University of Nebraska, priority 2013, dated 2018)
